Assay results as given in US20160115540A1, “PRODRUGS AND DRUGS” (Biogen MA Inc., priority 2013, published 2016).
Counter-ions that a name gives are not always drawn.

How the values were obtained:
cortex = experiment: Transcriptional profiling on Affymetrix GeneChips, single dose, naïve mice: cortex; type: in vivo, C57BL/6 mice; conditions: for Number of differentially expressed genes identified: Cortex: Naïve, Single Dose
Experimental: (§1) Treated mice were sacrificed at 2, 7, or 12 hours. Tissues (liver, spleen, kidney, jejunum, cortex, hippocampus, striatum and whole blood) were collected and analyzed by transcriptional profiling on mouse Affymetrix GeneChips.
(§2) Tissues (liver, spleen, kidney, jejunum, cortex, hippocampus, striatum and whole blood) were collected and analyzed by transcriptional profiling on mouse Affymetrix GeneChips.
(§3) Animals were exposed to CO2 and whole blood collected via cardiac puncture. Two 100 μl aliquots of whole blood were collected in 1.5 mL microcentrifuge tubes and snap frozen in liquid nitrogen. Peripheral (liver, spleen, kidney and jejunum) and CNS brain (cerebellum, hippocampus, striatum and cortex) tissues were harvested and snap frozen in liquid nitrogen, with special care taken to collect tissues of similar size and from the same location. All samples were stored at −80° C. until RNA extraction was conducted.
(§4) For RNA preparation, frozen tissues were placed in 2 mL RNAse-free 96-well blocks with 1.5 mL QIAzol Lysis Reagent (QIAgen) and a 3.2 mm stainless steel bead (BioSpec Products, Bartlesville, Okla.). Tissues were disrupted for four cycles of 45 seconds in a Mini-Beadbeater (Biospec Products). RNA was extracted in chloroform and the aqueous phase was mixed with an equal volume of 70% ethanol. Extracted RNA was applied to RNeasy 96 plates and purified by the spin method according to the manufacturer's protocol (RNeasy 96 Universal Tissue Protocol, QIAgen, Hilden Germany).
(§5) Automated sample amplifications and biotin labelings were carried out using the NuGEN Ovation RNA Amplification system V2 (Cat #3100), Ovation WB reagent (Cat #1300) and Encore Biotin module (Cat #4200) (NuGEN Technologies, Inc, San Carlos, Calif.) according to manufacturer's recommendations using an Arrayplex automated liquid handler (Beckman Coulter, Indianapolis, Ind.). Two micrograms of biotin labeled sscDNA probe were hybridized to Affymetrix GeneChip Affymetrix HT_MG-430_PM plate arrays with modified conditions as described in Allaire et al. Washing and staining of the hybridized arrays were completed as described in the GeneChip Expression analysis technical manual for HT plate arrays using the Genechip® Array Station (Affymetrix, Santa Clara, Calif.) with modifications as described in Allaire et al. The processed GeneChip® plate arrays were scanned using GeneTitan scanner (Affymetrix, Santa Clara, Calif.).
(§6) Affymetrix scans were subject to quality control (QC) measures. These tests included a visual inspection of the distribution of raw signal intensities and an assessment of RNA degradation, relative log expression (RLE), and normalized unsealed standard error (NUSE). All sample scans that passed these QC metrics were included in the analysis.
(§7) All CEL files were subjected to GC-content-based Robust Multi-array Average (GCRMA) normalization (version 2.20.0) (Irizarry R A, et al. Nucleic Acids Res 2003; 31:e15; Li C, et al. Genome Biol 2001; 2:[…]0032). Expression levels were log (base 2) transformed.
(§8) All calculations and analyses were carried out using R (version 2.11.1) and Bioconductor computational tools (Gentleman R. Springer Science+Business Media 2005).

hippocampus = experiment: Transcriptional profiling on Affymetrix GeneChips, single dose, naïve mice: hippocampus; type: in vivo, C57BL/6 mice; conditions: for Tmtc3 (1458305_PM_at) differential expression: 7 hr; for Number of differentially expressed genes identified: Hippocampus: Naïve, Single Dose
Experimental: as §1, §2, §3, §4, §5, §6, §7, §8

[1] = 100 mpk DMF-vs-100 mpk MMF, 2 h after last dosing
[2] = 100 mpk DMF-vs-100 mpk MMF, 7 h after last dosing
[3] = 100 mpk DMF-vs-100 mpk MMF, 12 h after last dosing
[4] = 100 mpk, vs Vehicle, 2 h after last dosing
[5] = 100 mpk, vs Vehicle, 7 h after last dosing
[6] = 100 mpk, vs Vehicle, 12 h after last dosing
[7] = hippocampus, 100DMF-vs-100MMF, 2 h
[8] = hippocampus, 100DMF-vs-Veh, 7 h
[9] = cortex, 2 hr after single 100 mg/kg oral dose
[10] = cortex, 7 hr after single 100 mg/kg oral dose
[11] = hippocampus, 100MMF-vs-Veh, 2 h
[12] = hippocampus, 100MMF-vs-Veh, 7 h
[13] = hippocampus, 2 hr after single 100 mg/kg oral dose

COC(=O)/C=C/C(=O)OC [DMF, dimethyl fumarate]
Number of genes, DMF Only / MMF Only (cortex; Cortex): 2
Fgfbp1 (1419086_PM_at) differential expression (cortex; Cortex, 7 hr): 1.54
Nqo1 (1423627_PM_at) differential expression (cortex; Cortex, 7 hr): 1.50
Number of differentially expressed genes identified: Cortex (cortex; [1]): 0
Number of differentially expressed genes identified: Cortex (cortex; [2]): 0
Number of differentially expressed genes identified: Cortex (cortex; [3]): 0
Number of differentially expressed genes identified: Cortex (cortex; [4]): 2
Number of differentially expressed genes identified: Cortex (cortex; [5]): 2
Number of differentially expressed genes identified: Cortex (cortex; [6]): 0
differentially expressed genes (cortex; cortex, 100DMF-vs-100MMF, 2 h): None
differentially expressed genes (cortex; cortex, 100DMF-vs-100MMF, 7 h): None
differentially expressed genes (cortex; cortex, 100DMF-vs-100MMF, 12 h): None
FC AI314604 (1442075_PM_at) (cortex; cortex, 100DMF-vs-Veh, 2 h): 1.57
FC Ciapin1 (1448140_PM_at) (cortex; cortex, 100DMF-vs-Veh, 2 h): 1.55
FC Fgfbp1 1419086_PM_at (cortex; cortex, 100DMF-vs-Veh, 7 h): 1.54
FC Nqo1 (1423627_PM_at) (cortex; cortex, 100DMF-vs-Veh, 7 h): 1.50
differentially expressed genes (cortex; cortex, 100DMF-vs-Veh, 12 h): None
Number of genes, DMF Only / MMF Only (hippocampus; Hippocampus): 0
Tmtc3 (1458305_PM_at) differential expression (hippocampus; Hippocampus): −2.38
Number of differentially expressed genes identified: Hippocampus (hippocampus; [1]): 2
Number of differentially expressed genes identified: Hippocampus (hippocampus; [2]): 0
Number of differentially expressed genes identified: Hippocampus (hippocampus; [3]): 0
Number of differentially expressed genes identified: Hippocampus (hippocampus; [4]): 0
Number of differentially expressed genes identified: Hippocampus (hippocampus; [5]): 2
Number of differentially expressed genes identified: Hippocampus (hippocampus; [6]): 0
FC Dio2 (1418938_PM_at) (hippocampus; [7]): 1.58
FC Tmtc3 (1458305_PM_at) (hippocampus; [7]): −1.88
differentially expressed genes (hippocampus; hippocampus, 100DMF-vs-100MMF, 7 h): None
differentially expressed genes (hippocampus; hippocampus, 100DMF-vs-100MMF, 12 h): None
differentially expressed genes (hippocampus; hippocampus, 100DMF-vs-Veh, 2 h): None
FC Tmtc3 (1458305_PM_at) (hippocampus; [8]): −2.38
FC probe 1443353_PM_at (hippocampus; [8]): −1.84
differentially expressed genes (hippocampus; hippocampus, 100DMF-vs-Veh, 12 h): None

COC(=O)/C=C/C(=O)O [MMF, monomethyl fumarate]
Number of genes, DMF Only / MMF Only (cortex; Cortex): 14
Arnt2 (1420670_PM_at) differential expression (cortex; Cortex, 2 hr): −1.66
Atrn (1421166_PM_at) differential expression (cortex; Cortex, 2 hr): −1.62
Chka (1442277_PM_at) differential expression (cortex; Cortex, 2 hr): −1.53
Ednrb (1423594_PM_a_at) differential expression (cortex; Cortex, 2 hr): −1.53
Extl3 (1421339_PM_at) differential expression (cortex; Cortex, 2 hr): −1.57
Mkln1 (1416734_PM_at) differential expression (cortex; Cortex, 2 hr): −1.85
Plekhm3 (1438108_PM_at) differential expression (cortex; Cortex, 2 hr): −1.50
Ptk2 (1430827_PM_a_at) differential expression (cortex; Cortex, 2 hr): −1.53
Ptprg (1456070_PM_at) differential expression (cortex; Cortex, 2 hr): −1.83
Speer4b (1429992_PM_at) differential expression (cortex; Cortex, 2 hr): −1.60
Tanc2 (1443123_PM_at) differential expression (cortex; Cortex, 2 hr): −1.72
Top2b (1448458_PM_at) differential expression (cortex; Cortex, 2 hr): −1.51
Trak2 (1429607_PM_at) differential expression (cortex; Cortex, 2 hr): −1.57
Aox1 (1419435_PM_at) differential expression (cortex; Cortex, 7 hr): 1.65
Fgfbp1 (1419086_PM_at) differential expression (cortex; Cortex, 7 hr): 1.62
Aox1 (1419435_PM_at) differential expression (cortex; Cortex, 12 hr): 1.54
Number of differentially expressed genes identified: Cortex (cortex; [4]): 9
Number of differentially expressed genes identified: Cortex (cortex; [5]): 2
Number of differentially expressed genes identified: Cortex (cortex; [6]): 1
FC Arnt2 (1420670_PM_at) (cortex; cortex, 100MMF-vs-Veh, 2 h): −1.66
FC Atrn (1421166_PM_at) (cortex; cortex, 100MMF-vs-Veh, 2 h): −1.62
FC Ednrb (1423594_PM_a_at) (cortex; cortex, 100MMF-vs-Veh, 2 h): −1.53
FC Mkln1 (1416734_PM_at) (cortex; cortex, 100MMF-vs-Veh, 2 h): −1.85
FC Plekhm3 (1438108_PM_at) (cortex; cortex, 100MMF-vs-Veh, 2 h): −1.50
FC Ptk2 (1430827_PM_a_at) (cortex; cortex, 100MMF-vs-Veh, 2 h): −1.53
FC Tanc2 (1443123_PM_at) (cortex; cortex, 100MMF-vs-Veh, 2 h): −1.72
FC Top2b (1448458_PM_at) (cortex; cortex, 100MMF-vs-Veh, 2 h): −1.51
FC Trak2 (1429607_PM_at) (cortex; cortex, 100MMF-vs-Veh, 2 h): −1.57
FC Aox1 (1419435_PM_at) (cortex; cortex, 100MMF-vs-Veh, 7 h): 1.65
FC Fgfbp1 1419086_PM_at (cortex; cortex, 100MMF-vs-Veh, 7 h): 1.62
FC Aox1 (1419435_PM_at) (cortex; cortex, 100MMF-vs-Veh, 12 h): 1.54
Arnt2 mRNA fold change vs vehicle (cortex; [9]): −1.66
Atrn mRNA fold change vs vehicle (cortex; [9]): −1.62
Chka mRNA fold change vs vehicle (cortex; [9]): −1.53
Ednrb mRNA fold change vs vehicle (cortex; [9]): −1.53
Extl3 mRNA fold change vs vehicle (cortex; [9]): −1.57
Mkln1 mRNA fold change vs vehicle (cortex; [9]): −1.85
Plekhm3 mRNA fold change vs vehicle (cortex; [9]): −1.50
Ptk2 mRNA fold change vs vehicle (cortex; [9]): −1.53
Ptprg mRNA fold change vs vehicle (cortex; [9]): −1.83
Speer4b mRNA fold change vs vehicle (cortex; [9]): −1.60
Tanc2 mRNA fold change vs vehicle (cortex; [9]): −1.72
Top2b mRNA fold change vs vehicle (cortex; [9]): −1.51
Trak2 mRNA fold change vs vehicle (cortex; [9]): −1.57
Aox1 mRNA fold change vs vehicle (cortex; [10]): 1.65
Fgfbp1 mRNA fold change vs vehicle (cortex; [10]): 1.62
Aox1 mRNA fold change vs vehicle (cortex; cortex, 12 hr after single 100 mg/kg oral dose): 1.54
Number of genes, DMF Only / MMF Only (hippocampus; Hippocampus): 6
Dnajc18 (1425077_PM_at) differential expression (hippocampus; Hippocampus, 2 hr): −1.58
Heatr5b (1438085_PM_at) differential expression (hippocampus; Hippocampus, 2 hr): −1.56
Kcnq3 (1458421_PM_at) differential expression (hippocampus; Hippocampus, 2 hr): −1.50
Kpna4 (1417975_PM_at) differential expression (hippocampus; Hippocampus, 2 hr): −1.51
Nfat5 (1426029_PM_a_at) differential expression (hippocampus; Hippocampus, 2 hr): −1.51
Srgap2 (1434407_PM_at) differential expression (hippocampus; Hippocampus, 2 hr): −1.50
Tmtc3 (1458305_PM_at) differential expression (hippocampus; Hippocampus): −2.40
Number of differentially expressed genes identified: Hippocampus (hippocampus; [4]): 3
Number of differentially expressed genes identified: Hippocampus (hippocampus; [5]): 2
Number of differentially expressed genes identified: Hippocampus (hippocampus; [6]): 1
FC Heatr5b (1438085_PM_at) (hippocampus; [11]): −1.56
FC Kpna4 (1417975_PM_at) (hippocampus; [11]): −1.51
FC Srgap2 (1434407_PM_at) (hippocampus; [11]): −1.50
FC Tmtc3 (1458305_PM_at) (hippocampus; [12]): −2.40
FC probe 1443353_PM_at (hippocampus; [12]): −1.74
FC LOC100502895 (1435119_PM_at) (hippocampus; hippocampus, 100MMF-vs-Veh, 12 h): 1.66
Dnajc18 mRNA fold change vs vehicle (hippocampus; [13]): −1.58
Heatr5b mRNA fold change vs vehicle (hippocampus; [13]): −1.56
Kcnq3 mRNA fold change vs vehicle (hippocampus; [13]): −1.50
Kpna4 mRNA fold change vs vehicle (hippocampus; [13]): −1.51
Nfat5 mRNA fold change vs vehicle (hippocampus; [13]): −1.51
Srgap2 mRNA fold change vs vehicle (hippocampus; [13]): −1.50
Tmtc3 mRNA fold change vs vehicle (hippocampus; hippocampus, 7 hr after single 100 mg/kg oral dose): −2.40
